{"source": "paper PMC2854715", "about": "“Oxpholipin 11D: An Anti-Inflammatory Peptide That Binds Cholesterol and Oxidized Phospholipids” (PLoS ONE, 2010)", "key": {"[1]": {"test_system": "apoE deficient mice", "assay": "In vivo activity in apoE deficient mice: HDL inflammatory index", "settings": "1 mg/kg subcutaneously, fasting female apoE deficient mice, HDL isolated 6 h after dose, normalized to LDL; Figure 3", "description": "As previously described, [64], HAEC cells were treated with native LDL (250 µg/ml) in the absence or presence of HDL or tested peptides for 8 h. After these cultures were washed, the medium was replaced by fresh Medium 199 and the cultures were incubated for an additional 8 h. This culture medium was collected and assayed for monocyte chemotactic activity using chambers purchased from Neuroprobe (Cabin John, MD). After monocytes were added to the upper compartment, the chamber was incubated for 60 min at 37°C and subsequently disassembled. The membrane was rinsed, air dried, fixed with 1% glutaraldehyde, stained with 0.1% crystal violet dye, and 12 standardized high power fields were examined microscopically. The number of migrated monocytes was expressed as the mean ±SD of monocytes counted. Values obtained in the absence of HDL were normalized to a value of 1.0. Normalized values >1.0 after HDL addition were considered to be pro-inflammatory, and values <1.0 as being anti-inflammatory.\nApoE null mice on a C57BL/6J background, originally from Jackson Laboratories (Bar Harbor, ME), were maintained in a breeding colony in the Department of Laboratory and Animal Medicine at the David Geffen School of Medicine at UCLA. The mice were maintained on a chow diet (Ralston Purina, St. Louis, MO).\nSix hours later, and with continued fasting, blood was removed from the retro-orbital sinus under mild isoflurane anesthesia, and anticoagulated with heparin (2.5 U/ml). Plasma was obtained and fractionated by FPLC. HDL-containing fractions were tested in HAEC cultures for their ability to inhibit LDL-induced monocyte chemotactic activity. All procedures conformed to regulations of the UCLA Animal Research Committee. An HDL inflammatory index was determined using the standard monocyte chemotaxis assay. Indices >1 were interpreted as pro-inflammatory, and indices <1 as anti-inflammatory."}, "[2]": {"assay": "SPR binding to arachidonic acid", "description": "(§1) Binding experiments were done by surface plasmon resonance (SPR) on a BIAcore 3000 system (BiaCore AB, Piscataway, NJ). Peptide ligands and apoA-I were immobilized on a BIAcore CM5 sensor chip activated per the manufacturer's protocol with N-hydroxysuccinimide and 1-ethyl-3-(3-[…]) carbodiimide. After achieving adequate immobilization, the activated sensor surface was blocked with ethanolamine.\n(§2) Lipid stock solutions were prepared in absolute ethanol and then diluted into a standard BIAcore buffer (HBS-EP), containing 10 mM HEPES, pH 7.4, 150 mM NaCl, 3 mM EDTA and 0.005% (v/v) surfactant P20. Lipid concentrations used in the binding studies were selected to give binding responses of 30-500 resonance units. Lipid stock solutions were prepared at 1 mg/ml in ethanol. […] Ethanol-free HBS-EP buffer was used during the dissociation phase. Lipid binding was measured by observing the change in the SPR angle as 150 µl of lipid analyte (various concentrations) in HBS-EP buffer flowed over the biosensor for 3 min at 50 µl/min. Biosensors were washed with 25 or 50% ethanol to regenerate them between binding studies. SPR data were corrected for background binding to the matrix of the chip (“blank” channel) and analyzed with BIAevaluation 4.1 software (Biacore, Piscataway, NJ)."}, "[3]": {"assay": "SPR binding to linoleic acid", "description": "as §1, §2"}, "[4]": {"assay": "SPR binding to palmitic acid", "description": "as §1, §2"}, "[5]": {"assay": "SPR binding to PGPC", "description": "as §1, §2"}, "[6]": {"assay": "SPR binding to POVPC", "description": "as §1, §2"}, "[7]": {"assay": "SPR binding to PEIPC", "description": "as §1, §2"}, "[8]": {"assay": "SPR binding to KOdiA-PC", "description": "as §1, §2"}, "[9]": {"assay": "SPR binding to 5(S)-HPETE", "description": "as §1, §2"}, "[10]": {"assay": "SPR binding to 12(S)-HPETE", "description": "as §1, §2"}, "[11]": {"assay": "SPR binding to 15(S)-HPETE", "description": "as §1, §2"}, "[12]": {"assay": "SPR binding to 13(S)-HPODE", "description": "as §1, §2"}, "[13]": {"assay": "SPR binding to 12(S)-HETE", "description": "as §1, §2"}, "[14]": {"assay": "SPR binding to 15(S)-HETE", "description": "as §1, §2"}, "[15]": {"assay": "SPR binding to 9(S)-HODE", "description": "as §1, §2"}, "[16]": {"assay": "SPR binding to 13(S)-HODE", "description": "as §1, §2"}, "[17]": {"assay": "SPR binding to cholesterol", "settings": "peptide immobilized on CM5 chip, sterol in HBS-EP pH 7.4, mean ± SEM", "description": "as §1, §2"}, "[18]": {"assay": "SPR binding to 20(S)-hydroxycholesterol", "description": "as §1, §2"}, "[19]": {"assay": "SPR binding to 22(S)-hydroxycholesterol", "description": "as §1, §2"}, "[20]": {"assay": "SPR binding to 24(S)-hydroxycholesterol", "description": "as §1, §2"}, "[21]": {"assay": "SPR binding to 25-hydroxycholesterol", "settings": "peptide immobilized on CM5 chip, sterol in HBS-EP pH 7.4, mean ± SEM", "description": "as §1, §2"}, "[22]": {"assay": "SPR binding to 4β-hydroxycholesterol", "settings": "peptide immobilized on CM5 chip, sterol in HBS-EP pH 7.4, mean ± SEM", "description": "as §1, §2"}, "[23]": {"biological_target": "T1, Bovine albumin (Bos taurus, UniProt P02769)", "T1 construct": "purchased Sigma-Aldrich", "T1 sequence (P02769 25-607)": "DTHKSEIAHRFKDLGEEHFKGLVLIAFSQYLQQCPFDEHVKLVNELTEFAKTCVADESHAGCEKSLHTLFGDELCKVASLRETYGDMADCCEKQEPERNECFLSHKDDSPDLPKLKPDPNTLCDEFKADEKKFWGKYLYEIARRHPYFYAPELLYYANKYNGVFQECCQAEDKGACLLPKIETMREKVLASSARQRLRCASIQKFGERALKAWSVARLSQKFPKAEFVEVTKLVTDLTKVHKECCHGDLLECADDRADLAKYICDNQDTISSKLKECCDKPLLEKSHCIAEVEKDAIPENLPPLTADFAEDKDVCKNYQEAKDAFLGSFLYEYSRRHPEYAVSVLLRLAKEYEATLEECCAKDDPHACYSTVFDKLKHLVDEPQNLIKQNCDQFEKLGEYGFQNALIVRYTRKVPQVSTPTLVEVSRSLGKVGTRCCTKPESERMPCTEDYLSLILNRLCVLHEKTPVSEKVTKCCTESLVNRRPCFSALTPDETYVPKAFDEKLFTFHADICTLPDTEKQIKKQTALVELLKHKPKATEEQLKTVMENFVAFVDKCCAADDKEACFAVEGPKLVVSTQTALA", "assay": "SPR binding to bovine albumin (control)", "settings": "peptide immobilized on CM5 chip, analyte in HBS-EP pH 7.4, mean ± SEM", "description": "as §1, §2"}, "[24]": {"settings": "KD(D-4F)/KD(OxP-11D), >1: OxP-11D binds with higher affinity"}, "[25]": {"settings": "SPR, peptide immobilized on CM5 chip, lipid in HBS-EP pH 7.4, mean ± SEM"}, "[26]": {"settings": "based on the KD ratios of Table 3"}, "[27]": {"settings": "SPR, peptide immobilized on CM5 chip, sterol in HBS-EP pH 7.4, mean ± SEM"}}, "note": "Entries after “also recorded” stand apart in the source; their conditions may differ. Non-standard residues stand in square brackets, D forms with d. Residues, ends and D or L forms follow the SMILES beside them. dDip = N[C@@H](C(=O)O)C(c1ccccc1)c1ccccc1", "data": [{"smiles": "CC(C)C[C@@H](NC(=O)CNC(=O)[C@H](NC(=O)[C@H](NC(=O)[C@@H](CCC(=O)O)NC(=O)[C@H](N)CCCNC(=N)N)C(c1ccccc1)c1ccccc1)[C@H](C)O)C(=O)N[C@H](C)C(=O)N[C@H](Cc1c[nH]c2ccccc12)C(=O)N[C@H](CCC(=O)O)C(=O)N[C@H](Cc1c[nH]c2ccccc12)C(=O)N[C@H](Cc1c[nH]c2ccccc12)C(=O)N[C@H](CCCNC(=N)N)C(=O)N[C@@H](C(=O)N[C@@H](C(N)=O)C(C)C)[C@H](C)O", "note": "[OxP-11D] (H-[dR][dE][dDip][dT]G[dL][dA][dW][dE][dW][dW][dR][dT][dV]-NH2; N-terminus assumed)", "values": [{"measurement": "HDL Inflammatory Index in vivo", "setting": "[1]", "value": "activity rivaled D-4F; also recorded: equally effective"}, {"measurement": "D-4F/OxP-11D KD Ratio, arachidonic acid", "setting": "[2]; [24]", "value": 0.012}, {"measurement": "Kd", "setting": "[2]; [25]", "value": 970, "unit": "nM"}, {"measurement": "D-4F/OxP-11D KD Ratio, linoleic acid", "setting": "[3]; [24]", "value": 0.025}, {"measurement": "Kd", "setting": "[3]; [25]", "value": 600, "unit": "nM"}, {"measurement": "D-4F/OxP-11D KD Ratio, palmitic acid", "setting": "[4]; [24]", "value": 2.030}, {"measurement": "Kd", "setting": "[4]; [25]", "value": 330, "unit": "nM"}, {"measurement": "D-4F/OxP-11D KD Ratio, PGPC", "setting": "[5]; [24]", "value": 0.002}, {"measurement": "Kd", "setting": "[5]; [25]", "value": 3200, "unit": "nM"}, {"measurement": "D-4F/OxP-11D KD Ratio, POVPC", "setting": "[6]; [24]", "value": 0.008}, {"measurement": "Kd", "setting": "[6]; [25]", "value": 300, "unit": "nM"}, {"measurement": "D-4F/OxP-11D KD Ratio, PEIPC", "setting": "[7]; [24]", "value": 0.005}, {"measurement": "Kd", "setting": "[7]; SPR binding isotherm, Figure 5B, biosensor presented 4686 RU of OxP-11D", "value": "12.4 ± 4.4", "unit": "nM"}, {"measurement": "D-4F/OxP-11D KD Ratio, KOdiA-PC", "setting": "[8]; [24]", "value": 0.003}, {"measurement": "Kd", "setting": "[8]; [25]", "value": 190, "unit": "nM"}, {"measurement": "D-4F/OxP-11D KD Ratio, 5(S)-HPETE", "setting": "[9]; [24]", "value": 1.059}, {"measurement": "Kd", "setting": "[9]; SPR binding isotherm, Figure 5D, biosensor presented 4686 RU of OxP-11D", "value": "16.9 ± 4.8", "unit": "nM"}, {"measurement": "Affinity for 5(S)-HPETE relative to affinity for arachidonic acid", "setting": "[9]; [26]", "value": "approximately 57 fold"}, {"measurement": "D-4F/OxP-11D KD Ratio, 12(S)-HPETE", "setting": "[10]; [24]", "value": 5.000}, {"measurement": "Kd", "setting": "[10]; SPR binding isotherm, Figure 5C, biosensor presented 4686 RU of OxP-11D", "value": "34.4 ± 10.1", "unit": "nM"}, {"measurement": "Affinity for 12(S)-HPETE relative to affinity for arachidonic acid", "setting": "[10]; [26]", "value": "approximately 28.5 fold"}, {"measurement": "D-4F/OxP-11D KD Ratio, 15(S)-HPETE", "setting": "[11]; [24]", "value": 1.133}, {"measurement": "Kd", "setting": "[11]; [25]", "value": 45, "unit": "nM"}, {"measurement": "D-4F/OxP-11D KD Ratio, 13(S)-HPODE", "setting": "[12]; [24]", "value": 0.677}, {"measurement": "Kd", "setting": "[12]; [25]", "value": 31, "unit": "nM"}, {"measurement": "D-4F/OxP-11D KD Ratio, 12(S)-HETE", "setting": "[13]; [24]", "value": 0.375}, {"measurement": "Kd", "setting": "[13]; [25]", "value": 48, "unit": "nM"}, {"measurement": "D-4F/OxP-11D KD Ratio, 15(S)-HETE", "setting": "[14]; [24]", "value": 0.236}, {"measurement": "Kd", "setting": "[14]; [25]", "value": 93, "unit": "nM"}, {"measurement": "D-4F/OxP-11D KD Ratio, 9(S)-HODE", "setting": "[15]; [24]", "value": 0.714}, {"measurement": "Kd", "setting": "[15]; [25]", "value": 21, "unit": "nM"}, {"measurement": "D-4F/OxP-11D KD Ratio, 13(S)-HODE", "setting": "[16]; [24]", "value": 2.895}, {"measurement": "Kd", "setting": "[16]; [25]", "value": 3.8, "unit": "nM"}, {"measurement": "Kd", "setting": "[17]", "value": 360, "unit": "nM"}, {"measurement": "D-4F/OxP-11D KD Ratio, 20(S)-hydroxycholesterol", "setting": "[18]; [24]", "value": 7.647}, {"measurement": "Kd", "setting": "[18]; [27]", "value": 510, "unit": "nM"}, {"measurement": "D-4F/OxP-11D KD Ratio, 22(S)-hydroxycholesterol", "setting": "[19]; [24]", "value": 33.333}, {"measurement": "Kd", "setting": "[19]; [27]", "value": 450, "unit": "nM"}, {"measurement": "D-4F/OxP-11D KD Ratio, 24(S)-hydroxycholesterol", "setting": "[20]; [24]", "value": 17.917}, {"measurement": "Kd", "setting": "[20]; [27]", "value": 240, "unit": "nM"}, {"measurement": "KD ± SEM, 25-hydroxycholesterol", "setting": "[21]", "value": "BND"}, {"measurement": "KD ± SEM, 4β-hydroxycholesterol", "setting": "[22]", "value": "BND"}, {"measurement": "Kd", "setting": "[23]", "value": 690, "unit": "nM"}]}]}
